Series [1] can be described thus: Plasma pharmacokinetics after i.p. administration. The class given is in vivo. The conditions noted are these: ICR mice. As to the method:
Plasma concentrations of 30a, 33 and 50 were determined by LC-MS/MS after i.p. administration to ICR mice. The plasma concentrations at each sampling time are shown on FIG. 10. […] Indeed, following i.p. administration of 30a (7.57 mg/kg), 33 (7.86 mg/kg) and 50 (7.83 mg/kg), the peak plasma concentration occurred at 0.25, 0.5 and 0.125 h after dosing, respectively. […] The respective half-lives were ˜0.6 hrs, ˜1.1 hrs and ˜0.6 hrs.

The test system of series [2] is calpain-generated spectrin fragments. Nature of the series: Spectrin proteolytic degradation products in hippocampi, western blot. The class given is in vivo. The method, then:
Studies were performed to determine capability of lowering levels of spectrin proteolytic degradation products in hippocampi from adult animals. Using western blot analysis, prevention of calpain-generated spectrin fragments was checked following i.p. treatment for 12 days with 30a, 33 and 50 at the same concentrations used for PK assessment. The array of vehicle samples was obtained by loading samples with 5, 10, 15, and 20 μg total protein/lane. Samples from compound treated animals were loaded at 15 μg/lane.
For orientation: Immunoblotting shows a protein as a band on a membrane.

A short description of series [3]: Acute and chronic toxicity, maximum tolerated dose. It is filed as in vivo. The conditions noted are these: mouse, in vivo; mice; no malaise or death. An excerpt: For evaluation of acute and chronic toxicity we measured the maximum tolerated dose (MTD) in mice for 30a, 33 and 50.
The target in series [4] is full-length human Cal1 (Homo sapiens (Human), UniProt P07384). The experiment in a line: Calpain inhibition FRET assay. It is filed as biochemical.
Chain of full-length human Cal1 (P07384 whole entry): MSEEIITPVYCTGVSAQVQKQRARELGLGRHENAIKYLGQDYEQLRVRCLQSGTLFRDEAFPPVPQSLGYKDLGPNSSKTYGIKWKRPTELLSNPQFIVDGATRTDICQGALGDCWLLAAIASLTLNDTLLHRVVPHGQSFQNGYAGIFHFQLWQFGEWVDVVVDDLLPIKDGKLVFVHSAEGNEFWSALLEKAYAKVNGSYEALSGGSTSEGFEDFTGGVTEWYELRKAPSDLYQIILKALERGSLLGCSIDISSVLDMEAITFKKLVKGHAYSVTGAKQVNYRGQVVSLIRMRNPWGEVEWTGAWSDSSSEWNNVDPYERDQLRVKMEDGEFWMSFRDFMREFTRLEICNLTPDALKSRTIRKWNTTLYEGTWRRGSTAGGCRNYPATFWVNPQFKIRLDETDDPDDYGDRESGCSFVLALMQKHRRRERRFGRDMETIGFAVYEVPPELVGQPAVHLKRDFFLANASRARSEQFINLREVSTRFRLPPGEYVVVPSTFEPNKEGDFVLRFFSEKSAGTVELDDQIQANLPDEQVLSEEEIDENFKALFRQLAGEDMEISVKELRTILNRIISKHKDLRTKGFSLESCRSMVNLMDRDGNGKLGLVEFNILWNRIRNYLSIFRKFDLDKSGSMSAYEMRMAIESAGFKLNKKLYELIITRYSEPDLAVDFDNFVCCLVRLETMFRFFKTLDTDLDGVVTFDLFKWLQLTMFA
Chain of full-length human Cal1 (P04632 whole entry partner): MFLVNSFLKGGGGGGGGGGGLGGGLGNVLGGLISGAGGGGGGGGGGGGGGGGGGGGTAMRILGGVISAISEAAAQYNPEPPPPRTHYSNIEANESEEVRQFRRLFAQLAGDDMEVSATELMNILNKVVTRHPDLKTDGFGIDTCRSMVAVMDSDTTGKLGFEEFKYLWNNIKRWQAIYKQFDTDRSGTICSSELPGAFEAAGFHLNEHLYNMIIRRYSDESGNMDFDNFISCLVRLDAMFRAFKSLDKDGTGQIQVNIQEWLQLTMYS
For series [5], the system named is APP/PS1 mice. Nature of the series: Behavioral rescue assays (contextual fear memory, 2-day RAWM reference memory). The class given is in vivo.
For series [6], the system named is Aβ-induced LTP impairment. The experiment in a line: LTP rescue test. The conditions noted are these: assessed at 650 nM.
Experimental: Residual levels of potentiation were averaged during the last 5 min of LTP.
The subject of series [7] is Aβ40 and Aβ42. Nature of the series: Effect on Aβ levels in APP/PS1 mice. It is filed as in vivo. To be noted: compound-treated vs vehicle-treated APP/PS1 transgenics. The source says: Increase of brain and plasma levels of Aβ and appearance of amyloid plaques is an important feature of AD.
Setting [8] is: APP/PS1 mice, daily treatment from 2 until 7 months.

Here are results for one compound from patent US9403843B2, “Cysteine protease inhibitors and uses thereof” (The Trustees of Columbia University in the City of New York, priority 2012, dated 2016).

Like-named read-outs stand apart in the source and are kept apart here.

Usually half-life stands for the time in which the quantity being followed falls by half. Read a high half-life as slow loss. Broadly, the bioavailability is dose-corrected exposure relative to a reference, in per cent. As a reminder, the MTD is the highest dose tested that stayed within the study's limit of toxicity. Read a low MTD as poorer tolerability. A word on the IC50: it is the concentration needed to halve the response being measured. For `O=C(O)C1OC1C(=O)N[C@@H](Cc1cscn1)C(=O)Nc1nc(-c2ccc(F)cc2)cs1` (stereo in doubt) [Compound 33, (2S,3S)-3-((S)-1-(4-(4-fluorophenyl)thiazol-2-ylamino)-1-oxo-3-(thiazol-4-yl)propan-2-ylcarbamoyl)oxirane-2-carboxylic acid], the “time of peak plasma concentration” value in series [1] (i.p., 30a 7.57, 33 7.86, 50 7.83 mg/kg) is 0.5 h. Besides, in series [1] (mouse, ip, plasma), the half-life was ~66 min. Further, the bioavailability in series [1] (mouse, plasma, ip, after i.p. administration, read-out: absolute bioavailability) came out at 87.3%. In addition, the “prevention of spectrin cleavage by calpains in hippocampi” value in series [2] (i.p. treatment for 12 days, doses as for PK) is listed as “dramatically reduced the amount of fragments”. In series [2] (inferred from hippocampal spectrin cleavage), the brain penetration entry is given as “capable of effectively penetrating the brain”. In addition, in series [3], the maximum tolerated dose (MTD) was 150 mg/kg. Moreover, the IC50 in series [4] (Cal1, values stated in text, read-out: IC50) was ~100 nM; in series [4] (Table 2, approximate IC50, read-out: Cal I IC50) it was 100 nM. The reference memory result in series [5] (3 month old APP/PS1 mice, 2-day RAWM, daily from 2 months) is listed as “beneficial”; in series [5] (setting [8]) it was “ameliorated”. Also, the contextual fear memory entry in series [5] (3 month old APP/PS1 mice, daily i.p. from 2 months) is recorded as “beneficial”; in series [5] (setting [8]), “ameliorated”. Also, the memory impairment entry in series [5] (7 month old APP/PS1 mice, chronic administration) is “beneficial”. Also, the “potency for LTP rescue compared with E64” value in series [6] is listed as “surpassed E64”. For the same compound, the “Aβ40 and Aβ42 levels in hippocampi” value in series [7] is “no difference was detected”.
